Some test systems named below: SF-539 CNS; NCI-H460 lung; A498 renal; SN12C renal; U251 CNS; HOP-62 NSCLC; MOLT-4 leukemia; HT29 colon; RPMI-8226 leukemia.
Experiment in all cases: NCI tumour cell line growth inhibition, 48 h

13 compounds from PubChem BioAssay (NCI) can be followed below.

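These data come from cells grown in 96-well plates and exposed to compound for 48 hours at five concentrations. Abbreviation: GI50, concentration required for 50% inhibition of growth. At the TGI there is no net growth.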 Some results are limits rather than exact numbers.

On to `N#CC(C#N)=C1NC(=O)C(c2ccccc2)C(=O)N1` (configuration not stated), for which the TGI in the experiment with SF-539 CNS, with NCI-H460 lung, with A498 renal, in the experiment with SN12C renal, with U251 CNS and in the experiment with HOP-62 NSCLC was greater than 100 µM each time. Moreover, the TGI in the experiment with MOLT-4 leukemia, with HT29 colon and in the experiment on RPMI-8226 leukemia was greater than 100 µM throughout.

Regarding `O=C(OCCOCCOC(=O)c1c[nH]cc1-c1ccccc1)c1c[nH]cc1-c1ccccc1`, the TGI with SF-539 CNS came to 32.5 µM; in the experiment with NCI-H460 lung it was 46.9 µM; in the experiment with A498 renal, 53.1 µM; in the experiment with SN12C renal, 42.1 µM; in the experiment with U251 CNS it was 36.7 µM; in the experiment on HOP-62 NSCLC, 31.7 µM. The TGI in the experiment on MOLT-4 leukemia is 49.1 µM; in the experiment on HT29 colon it was 35.2 µM; with RPMI-8226 leukemia it was 56.9 µM.

On to `CCOc1ccc(NC(=O)C2=C(C)NC(C)=C(C(=O)Nc3ccc(OCC)cc3)C2c2ccc([N+](=O)[O-])cc2)cc1`, for which the TGI in the experiment with SF-539 CNS is greater than 100 µM; with NCI-H460 lung, greater than 100 µM; with A498 renal it was 66.2 µM; in the experiment on SN12C renal, greater than 100 µM; with U251 CNS, greater than 100 µM; in the experiment with HOP-62 NSCLC it was greater than 100 µM. Besides, the TGI with MOLT-4 leukemia was found to be 66.9 µM; in the experiment on HT29 colon it was 86 µM; in the experiment on RPMI-8226 leukemia, 64.2 µM.

Regarding `C[Si](C)(C)/C(Br)=C\CCN1C(=O)CCC1O` (configuration not stated), the TGI in the experiment with SF-539 CNS, with NCI-H460 lung, in the experiment with A498 renal, with SN12C renal, in the experiment with U251 CNS and with MOLT-4 leukemia was greater than 100 µM in each case. Besides, the TGI in the experiment with HT29 colon and with RPMI-8226 leukemia was greater than 100 µM throughout.

As to `CC(CN(CP(=O)([O-])[O-])CP(=O)([O-])[O-])N(CP(=O)([O-])[O-])CP(=O)([O-])[O-].N[C@@H]1CCCC[C@@H]1N.[Pt+2]` (configuration not stated), the GI50 in the experiment with SF-539 CNS, in the experiment with NCI-H460 lung, with A498 renal, with SN12C renal, with U251 CNS and in the experiment with HOP-62 NSCLC was greater than 100 µM throughout. The GI50 in the experiment on MOLT-4 leukemia, in the experiment with HT29 colon and in the experiment with RPMI-8226 leukemia was greater than 100 µM throughout. For the same compound, the TGI in the experiment on SF-539 CNS, in the experiment on NCI-H460 lung, with A498 renal, with SN12C renal, in the experiment on U251 CNS and with HOP-62 NSCLC was greater than 100 µM in each case. The TGI in the experiment on MOLT-4 leukemia, in the experiment on HT29 colon and with RPMI-8226 leukemia was greater than 100 µM each time.

As for `Cn1cc(C(=O)C2CCCCC2)ccc1=O`, the TGI in the experiment on SF-539 CNS, in the experiment on NCI-H460 lung, with SN12C renal, in the experiment with U251 CNS, in the experiment on HOP-62 NSCLC and in the experiment with MOLT-4 leukemia was greater than 100 µM throughout. For the same compound, the TGI in the experiment with HT29 colon and in the experiment on RPMI-8226 leukemia was greater than 100 µM each time.

In the case of `CC(=O)OCCOCNC(=S)N/N=C(\C)c1ccco1`, the TGI in the experiment on SF-539 CNS, in the experiment with NCI-H460 lung, in the experiment on A498 renal, in the experiment with SN12C renal, with U251 CNS and with HOP-62 NSCLC was greater than 100 µM each time. Also, the TGI in the experiment on HT29 colon was greater than 100 µM.

With `Cc1ccc(S(=O)(=O)N2CCCCC2CCO)cc1` (configuration not stated), the TGI in the experiment with SF-539 CNS, in the experiment on NCI-H460 lung, with A498 renal, in the experiment on SN12C renal, in the experiment on U251 CNS and in the experiment on HOP-62 NSCLC was greater than 100 µM in each case. Moreover, the TGI in the experiment with MOLT-4 leukemia, with HT29 colon and with RPMI-8226 leukemia was greater than 100 µM each time.

On to `C[C@H](NC(=O)OC1C2C=CC(O)C1CC2)c1ccccc1` (some centres not stated), for which the TGI with SF-539 CNS, with NCI-H460 lung, with A498 renal, with SN12C renal, with U251 CNS and with HOP-62 NSCLC was greater than 100 µM throughout. For the same compound, the TGI was greater than 100 µM with MOLT-4 leukemia and 48.6 µM in the experiment with RPMI-8226 leukemia.

On to `CC(=O)OC1COC(N2C(=O)C(=O)c3cc(Br)c([N+](=O)[O-])cc32)C(OC(C)=O)C1OC(C)=O` (configuration not stated), for which the TGI is greater than 100 µM in the experiment on SF-539 CNS; greater than 100 µM with NCI-H460 lung; greater than 100 µM in the experiment on SN12C renal; greater than 100 µM in the experiment on U251 CNS; greater than 100 µM with HOP-62 NSCLC; 88.5 µM in the experiment with MOLT-4 leukemia. Also, the TGI in the experiment on HT29 colon and in the experiment on RPMI-8226 leukemia was greater than 100 µM throughout.

As for `CC(=O)O[C@H]1CC[C@@]2(C)C(=CC[C@@H]3C2CC[C@]2(C)Nc4oncc4CC32)C1` (some centres not stated), the TGI in the experiment on SF-539 CNS is greater than 100 µM; in the experiment with NCI-H460 lung, 48.8 µM; in the experiment on A498 renal, greater than 100 µM; with U251 CNS it was greater than 100 µM; in the experiment with HOP-62 NSCLC it was greater than 100 µM; in the experiment with MOLT-4 leukemia it was 28.9 µM. The TGI was greater than 100 µM in the experiment with HT29 colon and 43.8 µM in the experiment on RPMI-8226 leukemia.

For `Cc1ccccc1NC(=O)c1[nH]c(=S)nc(N)c1-c1ccccc1C`, the TGI in the experiment on SF-539 CNS, in the experiment with NCI-H460 lung, in the experiment with A498 renal, in the experiment with SN12C renal, with U251 CNS and in the experiment with HOP-62 NSCLC was greater than 100 µM in each case. For the same compound, the TGI in the experiment with MOLT-4 leukemia, with HT29 colon and with RPMI-8226 leukemia was greater than 100 µM throughout.

For `CCCCCCCCCCCCC(Br)C(=O)SCCNC(=O)CCNC(=O)[C@@H](O)C(C)(C)COP(=O)(O)OP(=O)(O)OCC1OC(n2cnc3c(N)ncnc32)C(O)C1OP(=O)(O)O` (some centres not stated), the TGI in the experiment on SF-539 CNS, in the experiment with NCI-H460 lung, with A498 renal, with SN12C renal, in the experiment on U251 CNS and with HOP-62 NSCLC was greater than 56.5 µM in each case. In the experiment with HT29 colon, this compound came in with a TGI greater than 56.5 µM.
